Measured values reported in patent US8642087B1, “Compounds and methods for reducing oxidative stress” (University of Kentucky Research Foundation, priority 2010, dated 2014).
pIC50: −log10 of the molar value. Converted amounts (≈) assume the structure as drawn. Blank lines part the entries; values can stand above or below the compound they belong to.

Key:
HUVECs [1] = experiment: H2O2-induced oxidative stress injury to HUVECs, cell viability by MTT assay; type: cell-based, human; conditions: for cell viability compared to untreated control cells: pre-treatment 2 hrs, then 500 μM H2O2, 24 hrs
Experimental: To assess the effect of H2O2-induced oxidative stress injury to HUVECs in the presence of PAβAE degradation products, cell viability was measured and used as a marker of the injury to the cells subsequent to exposure to the degradation products of PAβAE and H2O2. […] Cells were exposed to antioxidants at different concentrations and a final H2O2 concentration of 500 μM. 24 hrs later, cell viability was measured using MTT assay as described above.

HUVECs [2] = experiment: HNE-induced oxidative stress injury to HUVEC monolayer, transendothelial electrical resistance (TEER); type: cell-based, human; conditions: 20 hours; degradation products 100 μg/mL alone; HNE 30 μM alone
Experimental: To assess the effect of 4-hydroxy-2-trans-nonenal (HNE)-induced oxidative stress injury to HUVECs in the presence of PAβAE degradation products, transendothelial electrical resistance (TEER) values were measured and used to monitor the permeability and injury of the cells subsequent to exposure to the degradation products of PAβAE and FINE. Briefly, HUVECs were seeded into 24 well plate Transwell inserts (Corning Costar Transwell Plates). Wells were rinsed with HBSS and media replaced every other day. TEER values (EVOM II reader, World Precision Instruments) were monitored every day until resistance stabilization after approximately 7 days. HUVECs were treated with degradation products of PAβAE, including 10% quercetin multiacrylate (QMA) and 10% curcumin multiacrylate (CMA), at a concentration of 100 μg/mL in the cell media for 1 hour. Following prophylactic incubation, and without removing PABAE degradation products, FINE was added to a final concentration 30 μM to induce oxidative injury. TEER was measured before cells were seeded, immediately before addition PABAE degradation products, and 20 hours following FINE incubation, which is consistent with maximum FINE induced injury. Change in TEER was calculated as shown below in Eq. 4. Change in TEER=(Ω20 hr−ΩTranswell insert)/(Ω0 hr−ΩTranswell insert) (4)

in vitro = conditions: human
Experimental: (§1) To further examine the properties of the PAβAE hydrogels and their ability to be used as a polymer that is capable of controllably releasing an antioxidant molecule, the cytotoxicity of PAβAE degradation products was measured. In this analysis, human umbilical vein endothelial cells (HUVECs) were first purchased from Lonza (Allendale, N.J.) and cultured in EGM-2 media with 2% fetal bovine serum at 37° C. in a humidified atmosphere of 5% CO2, with HUVECs in passages 3 to 5 then being used. To assess the cytotoxicity of the degradation products, the HUVECs were then treated with degradation products of the PAβAEs at different concentrations and a MTT assay was used to measure cell viability after treating cells with the different concentrations of PAβAE degradation products. Briefly, HUVECs were seeded onto a 96-well plate at a cell density of 35,000 cells/cm^2, and, 24 hrs later, cell media was replaced with treatment solutions. 24 hrs post treatment, treatment solution was removed, cells were washed twice in PBS, and 200 μL of 0.5 mg/ml MTT solution in cell media was added to each well. The 96-well plate was then incubated at 37° C. for 12 hrs and the cell media was gently removed from the wells. 100 μL of DMSO was added to each well to dissolve the formazan product. The absorbance intensity was recorded, at 570 nm for formazan and at 690 for background, using a Cary-50 Bio UV-Visible spectrophotometer equipped with a Cary 50 MPR microplate reader (Varian, Santa Clara, Calif.).
(§2) PAβAE degradation products were then freeze dried and dissolved in DMSO at a concentration of 100 mg/ml. These concentrated DMSO solutions were then used to prepare fresh dilute solutions of PAβAE degradation products in cell media. Cells were treated with these PAβAE solutions for their cytotoxicity and their effect on cellular oxidative stress levels. To prepare quercetin and curcumin solutions, antioxidants were dissolved in DMSO at a concentration of 10 mg/ml and diluted in cell media.

HUVECs [3] = conditions: literature, cited from earlier work
[4] = system: human umbilical vein endothelial cells (HUVECs); conditions: 24 h
Experimental: as §1, §2

[5] = system: human normal liver cells L-02; conditions: literature; cited from earlier work

SMILES: OO [H2O2, hydrogen peroxide]
viability at 500 µM (HUVECs [1]; Homo sapiens, HUVEC, 500 μM H2O2 only, 24 hrs, read-out: cell viability compared to untreated control cells): 72.9%

SMILES: CCCCCC(O)/C=C/C=O (stereo not drawn) [HNE, 4-hydroxy-2-trans-nonenal]
Change in TEER compared to the TEER measurement at 0 hours (HUVECs [2]): 75±2

IC50 at 24 h (in vitro): 6.8 µg/mL (≈ 18.5 µM)
SMILES: COc1cc(/C=C/C(=O)CC(=O)/C=C/c2ccc(O)c(OC)c2)ccc1O [curcumin]
cell viability compared to untreated control cells (HUVECs [1]): 57.7 ± 1.6 | previously reported IC50 value for HUVECs (HUVECs [3]): 10.8 µg/mL | cell death ([4]; 5 μg/ml): 40%

SMILES: O=c1c(O)c(-c2ccc(O)c(O)c2)oc2cc(O)cc(O)c12 [quercetin, Quercetin]
cell viability compared to untreated control cells (HUVECs [1]): 101.13 ± 3.8 | pIC50 [5]: 3.95 | previously reported IC50 value for HUVECs (HUVECs [3]): 18.4 µg/mL | pIC50 (HUVECs [3]; read-out: previously reported IC50 value for HUVECs): 4.21 | cytotoxicity (in words) [4]: toxicity to HUVECs was note observed up to a concentration of 100 μg/ml
